Patent publication US8901133B2, “Heterocyclic compounds and uses thereof” (Infinity Pharmaceuticals, Inc., priority 2010, dated 2014)

Assays:
PI3Kα = molecular target: T1, PI3Kα (Homo sapiens, UniProt P42336); test: PI3 Kinase HTRF assay, PI3Kα; assay type: biochemical; conditions: 10 μM PIP2, 10 μM ATP; read-out: PI3K α IC50
T1 construct: purchased Millipore Corporation 14-602-K
Procedure, shortened: (§1)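 HTRF read-out: product PIP3 displaces biotinylated PIP3 from GST-tagged GRP1 PH domain, lowering Eu/APC FRET. Kinase reactions used purified recombinant enzyme, PIP2 10 μM, ATP 10 μM, 1 h at room temperature. Percent inhibition over 12 concentrations (20 μM–0.1 nM) fitted for IC50.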

PI3Kδ = molecular target: T2, PI3Kδ (Homo sapiens, UniProt O00329); test: PI3 Kinase HTRF assay, PI3Kδ; assay type: biochemical; conditions: 10 μM PIP2, 10 μM ATP; read-out: PI3K δ IC50
T2 construct: purchased Millipore Corporation 14-604-K
Procedure, shortened: as §1

Balb/c splenic B cells = test: B cell activation and proliferation assay (Alamar Blue); assay type: cell-based; conditions: Mus musculus, read-out: B cell prolif. IC50
Experimental: The ability of one or more subject compounds to inhibit B cell activation and proliferation is determined according to standard procedures known in the art. For example, an in vitro cellular proliferation assay is established that measures the metabolic activity of live cells. The assay is performed in a 96 well microtiter plate using Alamar Blue reduction. Balb/c splenic B cells are purified over a Ficoll-Paque™ PLUS gradient followed by magnetic cell separation using a MACS B cell Isolation Kit (Miletenyi). Cells are plated in 90 ul at 50,000 cells/well in B Cell Media (RPMI+10% FBS+Penn/Strep+50 uM bME+5 mM HEPES). A compound disclosed herein is diluted in B Cell Media and added in a 10 μl volume. Plates are incubated for 30 min at 37 C and 5% CO2 (0.2% DMSO final concentration). A 50 μl B cell stimulation cocktail is then added containing either 10 ug/ml LPS or 5 ug/ml F(ab′)2 Donkey anti-mouse IgM plus 2 ng/ml recombinant mouse IL4 in B Cell Media. Plates are incubated for 72 hours at 37° C. and 5% CO2. A volume of 15 μl of Alamar Blue reagent is added to each well and plates are incubated for 5 hours at 37 C and 5% CO2. Alamar Blue fluoresce is read at 560Ex/590Em, and IC50 or EC50 values are calculated using GraphPad Prism 5.

PI3Kβ = molecular target: T3, PI3Kβ (Homo sapiens, UniProt P42338); test: PI3 Kinase HTRF assay, PI3Kβ; assay type: biochemical; conditions: 10 μM PIP2, 10 μM ATP; read-out: PI3K β IC50
T3 construct: purchased Millipore Corporation 14-603-K
Procedure, shortened: as §1

PI3Kγ = molecular target: T4, PI3Kγ (Homo sapiens, UniProt P48736); test: PI3 Kinase HTRF assay, PI3Kγ; assay type: biochemical; conditions: 10 μM PIP2, 10 μM ATP; read-out: PI3K γ IC50
T4 construct: purchased Millipore Corporation 14-558-K
Procedure, shortened: as §1

lupus symptoms = conditions: B6.Sle1z.Sle3z model; cited from earlier work
[1] = PBS pH 7.4, 37° C., 24 hours, 5 μM; cited from earlier work
[2] = control or reference compounds, 5 μM; cited from earlier work

T3 sequence (P42338 whole entry): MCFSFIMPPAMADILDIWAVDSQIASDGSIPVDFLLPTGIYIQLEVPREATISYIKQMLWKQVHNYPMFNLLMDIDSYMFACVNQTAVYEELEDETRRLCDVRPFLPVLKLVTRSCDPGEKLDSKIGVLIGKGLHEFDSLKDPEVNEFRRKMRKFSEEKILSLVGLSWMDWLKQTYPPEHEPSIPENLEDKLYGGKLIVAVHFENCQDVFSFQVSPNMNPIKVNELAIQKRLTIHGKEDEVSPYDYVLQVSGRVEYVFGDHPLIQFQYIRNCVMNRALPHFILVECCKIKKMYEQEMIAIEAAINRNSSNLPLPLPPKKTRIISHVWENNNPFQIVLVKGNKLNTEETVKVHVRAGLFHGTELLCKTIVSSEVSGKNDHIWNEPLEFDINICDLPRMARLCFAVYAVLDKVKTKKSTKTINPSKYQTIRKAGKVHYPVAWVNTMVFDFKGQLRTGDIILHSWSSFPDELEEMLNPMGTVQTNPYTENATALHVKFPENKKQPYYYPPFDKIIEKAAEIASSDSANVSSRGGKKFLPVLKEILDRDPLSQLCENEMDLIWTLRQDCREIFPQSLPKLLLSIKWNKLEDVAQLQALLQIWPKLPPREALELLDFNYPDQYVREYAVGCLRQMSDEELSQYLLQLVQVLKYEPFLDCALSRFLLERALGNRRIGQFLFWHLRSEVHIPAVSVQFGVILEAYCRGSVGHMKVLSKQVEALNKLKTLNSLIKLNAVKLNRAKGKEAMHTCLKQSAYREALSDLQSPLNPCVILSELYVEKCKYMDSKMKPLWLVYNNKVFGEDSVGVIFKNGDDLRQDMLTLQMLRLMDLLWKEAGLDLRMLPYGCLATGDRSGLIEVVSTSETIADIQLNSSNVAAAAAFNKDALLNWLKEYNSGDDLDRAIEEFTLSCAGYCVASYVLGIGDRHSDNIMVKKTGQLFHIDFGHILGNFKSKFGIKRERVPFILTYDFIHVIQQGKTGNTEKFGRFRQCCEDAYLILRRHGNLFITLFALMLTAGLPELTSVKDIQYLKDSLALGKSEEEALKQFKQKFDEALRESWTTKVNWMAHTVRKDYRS
T3 sequence (P27986 whole entry partner): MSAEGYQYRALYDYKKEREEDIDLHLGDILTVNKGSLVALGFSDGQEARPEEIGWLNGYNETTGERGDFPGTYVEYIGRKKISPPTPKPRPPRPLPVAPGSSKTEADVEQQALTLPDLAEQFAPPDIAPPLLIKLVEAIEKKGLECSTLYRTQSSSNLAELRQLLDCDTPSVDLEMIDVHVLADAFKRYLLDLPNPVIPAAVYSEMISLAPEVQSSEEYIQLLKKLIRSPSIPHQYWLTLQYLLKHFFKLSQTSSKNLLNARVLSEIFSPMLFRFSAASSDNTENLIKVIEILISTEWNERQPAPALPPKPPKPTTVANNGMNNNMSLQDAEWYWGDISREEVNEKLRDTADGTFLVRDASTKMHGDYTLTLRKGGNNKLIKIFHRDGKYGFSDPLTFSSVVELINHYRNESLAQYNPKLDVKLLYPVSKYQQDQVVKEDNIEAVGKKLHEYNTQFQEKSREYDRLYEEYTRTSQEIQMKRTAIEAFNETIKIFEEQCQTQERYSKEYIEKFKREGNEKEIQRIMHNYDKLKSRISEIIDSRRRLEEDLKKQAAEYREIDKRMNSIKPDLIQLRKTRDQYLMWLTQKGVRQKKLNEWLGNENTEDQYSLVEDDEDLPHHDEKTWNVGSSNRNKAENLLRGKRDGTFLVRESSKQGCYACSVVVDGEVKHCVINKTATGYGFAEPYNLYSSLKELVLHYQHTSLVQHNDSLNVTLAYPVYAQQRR
T4 sequence (P48736 whole entry): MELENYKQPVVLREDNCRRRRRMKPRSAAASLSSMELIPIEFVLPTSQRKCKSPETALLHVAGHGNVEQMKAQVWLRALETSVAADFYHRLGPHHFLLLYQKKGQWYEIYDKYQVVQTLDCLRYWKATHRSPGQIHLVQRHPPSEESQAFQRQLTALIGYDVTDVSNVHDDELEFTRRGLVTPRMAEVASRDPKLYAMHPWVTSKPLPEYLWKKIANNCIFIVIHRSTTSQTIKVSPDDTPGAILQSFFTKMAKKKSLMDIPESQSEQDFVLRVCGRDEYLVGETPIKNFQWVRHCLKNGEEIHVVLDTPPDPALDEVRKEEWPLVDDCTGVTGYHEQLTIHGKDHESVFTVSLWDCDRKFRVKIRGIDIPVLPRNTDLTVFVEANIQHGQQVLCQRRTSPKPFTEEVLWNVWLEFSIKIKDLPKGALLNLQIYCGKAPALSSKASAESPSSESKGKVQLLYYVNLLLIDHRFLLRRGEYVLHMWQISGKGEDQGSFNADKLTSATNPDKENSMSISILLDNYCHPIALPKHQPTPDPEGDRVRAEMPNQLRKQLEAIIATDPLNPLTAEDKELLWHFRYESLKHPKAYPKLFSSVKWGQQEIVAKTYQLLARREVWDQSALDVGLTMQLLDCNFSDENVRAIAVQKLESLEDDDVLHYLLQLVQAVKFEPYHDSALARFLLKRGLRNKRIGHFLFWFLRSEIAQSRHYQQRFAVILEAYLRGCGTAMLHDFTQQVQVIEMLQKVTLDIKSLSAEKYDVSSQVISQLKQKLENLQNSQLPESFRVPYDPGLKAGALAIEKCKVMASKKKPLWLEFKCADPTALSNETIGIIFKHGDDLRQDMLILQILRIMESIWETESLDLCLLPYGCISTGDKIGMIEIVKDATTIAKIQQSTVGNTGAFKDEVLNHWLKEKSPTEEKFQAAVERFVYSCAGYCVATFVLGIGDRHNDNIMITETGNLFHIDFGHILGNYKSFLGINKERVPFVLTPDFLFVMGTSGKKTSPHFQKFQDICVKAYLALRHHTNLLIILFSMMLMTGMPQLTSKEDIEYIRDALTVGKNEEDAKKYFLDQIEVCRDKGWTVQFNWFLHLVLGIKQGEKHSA
T1 sequence (P42336 whole entry): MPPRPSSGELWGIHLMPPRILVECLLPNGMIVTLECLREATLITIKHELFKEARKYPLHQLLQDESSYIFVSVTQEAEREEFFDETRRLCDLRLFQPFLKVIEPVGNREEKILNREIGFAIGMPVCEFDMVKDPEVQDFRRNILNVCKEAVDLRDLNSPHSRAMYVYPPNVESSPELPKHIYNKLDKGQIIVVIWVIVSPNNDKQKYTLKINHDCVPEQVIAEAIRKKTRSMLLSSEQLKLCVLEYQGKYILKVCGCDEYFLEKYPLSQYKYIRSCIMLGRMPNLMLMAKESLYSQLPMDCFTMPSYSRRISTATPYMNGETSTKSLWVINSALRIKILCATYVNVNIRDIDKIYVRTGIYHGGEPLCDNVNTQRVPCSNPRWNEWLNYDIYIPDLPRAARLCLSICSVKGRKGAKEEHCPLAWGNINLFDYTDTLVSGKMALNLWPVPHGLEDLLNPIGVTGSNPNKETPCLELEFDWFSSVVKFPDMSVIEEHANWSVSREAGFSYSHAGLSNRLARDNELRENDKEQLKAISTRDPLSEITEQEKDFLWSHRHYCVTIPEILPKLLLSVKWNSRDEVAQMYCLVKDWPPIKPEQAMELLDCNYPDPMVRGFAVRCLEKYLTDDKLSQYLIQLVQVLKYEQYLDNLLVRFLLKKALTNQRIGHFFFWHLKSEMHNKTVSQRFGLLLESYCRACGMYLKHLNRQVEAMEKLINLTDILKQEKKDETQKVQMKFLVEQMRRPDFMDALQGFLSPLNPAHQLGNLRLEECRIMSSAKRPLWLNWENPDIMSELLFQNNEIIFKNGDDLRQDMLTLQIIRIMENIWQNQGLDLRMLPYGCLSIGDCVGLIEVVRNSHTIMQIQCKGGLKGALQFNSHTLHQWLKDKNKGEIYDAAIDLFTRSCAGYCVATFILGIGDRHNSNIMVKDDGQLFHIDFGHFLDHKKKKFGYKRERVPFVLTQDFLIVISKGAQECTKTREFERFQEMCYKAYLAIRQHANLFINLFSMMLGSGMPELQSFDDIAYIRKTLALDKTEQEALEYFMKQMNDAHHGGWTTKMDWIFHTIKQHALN
T1 sequence (P27986 whole entry partner): as the sequence (P27986 whole entry partner) above
T2 sequence (O00329 whole entry): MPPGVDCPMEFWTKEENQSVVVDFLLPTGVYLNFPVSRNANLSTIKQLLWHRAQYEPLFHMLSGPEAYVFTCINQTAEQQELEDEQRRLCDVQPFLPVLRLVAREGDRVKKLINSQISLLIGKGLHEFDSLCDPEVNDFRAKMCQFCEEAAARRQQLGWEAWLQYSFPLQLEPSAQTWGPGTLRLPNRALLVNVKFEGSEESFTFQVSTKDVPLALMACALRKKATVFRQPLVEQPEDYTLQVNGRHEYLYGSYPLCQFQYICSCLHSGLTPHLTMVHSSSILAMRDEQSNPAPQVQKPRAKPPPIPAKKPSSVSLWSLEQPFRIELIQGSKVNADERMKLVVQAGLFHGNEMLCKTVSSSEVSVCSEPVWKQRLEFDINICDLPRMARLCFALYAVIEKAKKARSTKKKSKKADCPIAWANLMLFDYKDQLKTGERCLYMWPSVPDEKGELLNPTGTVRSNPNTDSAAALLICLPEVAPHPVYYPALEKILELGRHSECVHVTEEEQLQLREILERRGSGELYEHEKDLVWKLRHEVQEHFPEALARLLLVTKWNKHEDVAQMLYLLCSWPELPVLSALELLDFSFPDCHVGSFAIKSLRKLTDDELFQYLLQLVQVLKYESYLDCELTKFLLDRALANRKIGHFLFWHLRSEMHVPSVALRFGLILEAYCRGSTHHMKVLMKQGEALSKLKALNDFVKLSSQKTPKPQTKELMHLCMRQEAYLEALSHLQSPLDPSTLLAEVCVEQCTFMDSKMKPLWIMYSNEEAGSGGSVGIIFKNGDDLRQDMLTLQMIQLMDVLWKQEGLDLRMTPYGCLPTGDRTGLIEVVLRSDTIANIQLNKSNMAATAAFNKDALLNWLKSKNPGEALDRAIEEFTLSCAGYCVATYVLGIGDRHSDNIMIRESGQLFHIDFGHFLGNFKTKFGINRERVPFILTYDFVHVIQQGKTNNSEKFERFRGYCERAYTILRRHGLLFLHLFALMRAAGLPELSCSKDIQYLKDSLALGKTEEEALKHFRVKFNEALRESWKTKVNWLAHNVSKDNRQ
T2 sequence (P27986 whole entry partner): as the sequence (P27986 whole entry partner) above

IC50 (PI3Kα) [µM]	IC50 (PI3Kδ) [µM]	IC50 (PI3Kβ) [µM]	IC50 (PI3Kγ) [µM]	SMILES	IC50 (Balb/c splenic B cells) [µM]	lupus symptoms (lupus symptoms)	chemical stability [1]	plasma stability [2]
< 10	< 0.1	< 10	< 10	Cc1cccc2cc([C@H](C)Nc3ncnc4cccnc34)nc(N3CCN(C)CC3)c12 [Compound 164]	< 0.1	–	–	–
< 10	< 0.1	> 10	< 10	Cc1cccc2cc([C@H](C)Nc3ncnc4cccnc34)nc(CCN3CCOCC3)c12 [Compound 165]	< 0.1	–	–	–
< 10	< 0.1	< 10	< 1	Cc1cccc2cc([C@H](C)Nc3ncnc4cccnc34)nc(C(=O)N3CCOCC3)c12 [Compound 166]	< 0.1	–	–	–
> 10	< 0.1	< 10	< 10	C[C@H](Nc1ncnc2scnc12)c1cc2cccc(Cl)c2c(OC2CCN(S(C)(=O)=O)CC2)n1 [Compound 172]	< 1	–	–	–
> 10	< 0.1	< 10	< 10	C[C@H](Nc1ncnc2cccnc12)c1cc2cccc(Cl)c2c(OC2CCN(S(C)(=O)=O)CC2)n1 [Compound 173]	< 1	–	–	–
> 10	< 0.1	< 10	< 10	C[C@H](Nc1ccnn2ccnc12)c1cc2cccc(Cl)c2c(OC2CCN(S(C)(=O)=O)CC2)n1 [Compound 176]	< 1	–	–	–
> 10	< 0.1	> 10	> 10	C[C@H](Nc1ccnc2ccnn12)c1cc2cccc(Cl)c2c(C(=O)NC2CCOCC2)n1 [Compound 177]	< 0.1	–	–	–
> 10	< 0.1	> 10	> 10	C[C@H](Nc1ccnn2ccnc12)c1cc2cccc(Cl)c2c(C(=O)NC2CCOCC2)n1 [Compound 180]	< 0.1	–	–	–
> 10	< 0.1	> 10	> 10	C[C@H](Nc1ccnn2ccnc12)c1cc2cccc(Cl)c2c(OCCN2CCCC2)n1 [Compound 182]	< 1	–	–	–
> 10	< 0.1	> 10	< 10	C[C@H](Nc1ncnc2[nH]cnc12)c1cc2cccc(-c3cnn(C)c3)c2c(C(=O)N2CCOCC2)n1 [Compound 185]	< 0.1	–	–	–
< 10	< 0.1	< 1	< 1	C[C@H](Nc1ccnn2ccnc12)c1cc2cccc(Cl)c2c(C(=O)N2CCOCC2)n1 [Compound 188]	< 0.1	–	–	–
> 10	< 0.1	> 10	< 1	C[C@H](Nc1ncnc2[nH]cnc12)c1cc2cccc(-c3cccnc3)c2c(Cl)n1 [Compound 192]	< 1	–	–	–
< 10	< 0.1	< 10	< 0.1	C[C@H](Nc1ncnc2[nH]cc(C(N)=O)c12)c1cc2cccc(Cl)c2c(C(=O)N2CCOCC2)n1 [Compound 204]	< 0.1	–	–	–
< 10	< 0.1	< 10	< 10	CCN1CCC(NC(=O)c2nc([C@H](C)Nc3ncnc4scnc34)cc3cccc(Cl)c23)CC1 [Compound 212]	< 0.1	–	–	–
< 10	< 0.1	> 10	< 10	C[C@H](Nc1ncnc2scnc12)c1cc2cccc(Cl)c2c(C(=O)NC2CCCC2)n1 [Compound 213]	< 0.1	–	–	–
< 10	< 0.1	> 10	< 10	C[C@H](Nc1ncnc2scnc12)c1cc2cccc(Cl)c2c(C(=O)NC2CCC(O)CC2)n1 (stereo partly drawn) [Compound 214]	< 0.1	–	–	–
> 10	< 0.1	< 10	< 1	C[C@H](Nc1ncnc2scnc12)c1cc2cccc(Cl)c2c(C(=O)N2CCS(=O)(=O)CC2)n1 [Compound 220]	< 0.1	–	–	–
< 10	< 0.1	< 10	< 10	C[C@H](Nc1ncnc2scnc12)c1cc2cccc(Cl)c2c(C(=O)N2CCC(F)(F)CC2)n1 [Compound 228]	< 0.1	–	–	–
< 10	< 0.1	< 10	< 10	C[C@H](Nc1ncnc2scnc12)c1cc2cccc(Cl)c2c(C(=O)N2CCOC[C@@H]2C)n1 [Compound 232]	< 0.1	–	–	–
< 10	< 0.1	< 10	< 10	C[C@H](Nc1ncnc2scnc12)c1cc2cccc(Cl)c2c(C(=O)N2CCC(O)CC2)n1 [Compound 234]	< 0.1	–	–	–
> 10	< 0.1	< 10	< 0.1	C[C@H](Nc1nc(N)nc2cccnc12)c1cc2cccc(Cl)c2c(C(=O)N2CCOCC2)n1 [Compound 238]	< 0.1	–	–	–
< 10	< 0.1	< 1	< 1	C[C@H](Nc1ncnc2[nH]cnc12)c1cc2cccc(Cl)c2c(-c2cc(CO)on2)n1 [Compound 242]	< 0.1	–	–	–
> 10	< 0.1	> 10	> 10	C[C@H](Nc1ncnc2cccnc12)c1cc2ccccc2c(C(=O)N2CCOCC2)n1 [Compound 247]	< 1	–	–	–
< 10	< 0.1	< 10	< 1	C[C@H](Nc1ncnc2cccnc12)c1cc2cccc(Cl)c2c(C(=O)N2CCOC[C@@H]2C)n1 [Compound 248]	< 0.1	–	–	–
–	–	–	–	CO[C@H]1C[C@@H]2CC[C@@H](C)[C@@](O)(O2)C(=O)C(=O)N2CCCC[C@H]2C(=O)O[C@H]([C@H](C)C[C@@H]2CC[C@@H](OCCO)[C@H](OC)C2)CC(=O)[C@H](C)/C=C(\C)[C@@H](O)[C@@H](OC)C(=O)[C@H](C)C[C@H](C)/C=C/C=C/C=C/1C [RAD001, everolimus]	–	ameliorate lupus symptoms	–	–
–	–	–	–	O=C(O)CCCc1ccc(N(CCCl)CCCl)cc1 [chlorambucil]	–	–	largely hydrolyzed over the course of 24 hours	–
–	–	–	–	CC(C)[N+](C)(CCOC(=O)C1c2ccccc2Oc2ccccc21)C(C)C [propantheline]	–	–	–	intermediate plasma stability
–	–	–	–	CCCOc1cc(N)ccc1C(=O)OCCN(CC)CC [propoxycaine]	–	–	–	low plasma stability

SMILES	IC50 (PI3Kα) [µM]	IC50 (PI3Kδ) [µM]	IC50 (PI3Kβ) [µM]	IC50 (PI3Kγ) [µM]	IC50 (Balb/c splenic B cells) [µM]	lupus symptoms (lupus symptoms)	chemical stability [1]	plasma stability [2]
Cc1cccc2cc([C@H](C)Nc3ncnc4cccnc34)nc(C(=O)N3C4CCC3COC4)c12 [Compound 167]	< 10	< 0.1	< 10	< 1	< 0.1	–	–	–
C[C@H](Nc1ccnn2ccnc12)c1cc2cccc(Cl)c2c(C(=O)N2C3CCC2COC3)n1 [Compound 189]	> 10	< 0.1	< 10	< 10	< 0.1	–	–	–
C[C@H](Nc1ncnc2[nH]cc(C(N)=O)c12)c1cc2cccc(Cl)c2c(C(=O)N2C3CCC2COC3)n1 [Compound 207]	< 10	< 0.1	< 10	< 0.1	< 0.1	–	–	–
C[C@H](Nc1ncnc2[nH]cc(F)c12)c1cc2cccc(Cl)c2c(C(=O)N2C3CCC2COC3)n1 [Compound 208]	< 10	< 0.1	< 10	< 1	< 0.1	–	–	–
